For data set [1], the system named is thapsigargin-induced IL-2 secretion from T cells in human whole blood. Nature of the data set: Human whole blood ex vivo assay, IL-2 secretion. As to conditions: for IC50: 50% human whole blood, thapsigargin stimulus, 48 hours, read-out: WB (IL-2) IC50. The format is cell-based.
For a further data set, the target named is human Kv1.3 (Homo sapiens, UniProt P22001). Put plainly: Whole cell patch clamp electrophysiology, Kv1.3. (In general: Patch clamp records ionic current or voltage across a cell membrane.)
Sequence of human Kv1.3 (P22001 whole entry): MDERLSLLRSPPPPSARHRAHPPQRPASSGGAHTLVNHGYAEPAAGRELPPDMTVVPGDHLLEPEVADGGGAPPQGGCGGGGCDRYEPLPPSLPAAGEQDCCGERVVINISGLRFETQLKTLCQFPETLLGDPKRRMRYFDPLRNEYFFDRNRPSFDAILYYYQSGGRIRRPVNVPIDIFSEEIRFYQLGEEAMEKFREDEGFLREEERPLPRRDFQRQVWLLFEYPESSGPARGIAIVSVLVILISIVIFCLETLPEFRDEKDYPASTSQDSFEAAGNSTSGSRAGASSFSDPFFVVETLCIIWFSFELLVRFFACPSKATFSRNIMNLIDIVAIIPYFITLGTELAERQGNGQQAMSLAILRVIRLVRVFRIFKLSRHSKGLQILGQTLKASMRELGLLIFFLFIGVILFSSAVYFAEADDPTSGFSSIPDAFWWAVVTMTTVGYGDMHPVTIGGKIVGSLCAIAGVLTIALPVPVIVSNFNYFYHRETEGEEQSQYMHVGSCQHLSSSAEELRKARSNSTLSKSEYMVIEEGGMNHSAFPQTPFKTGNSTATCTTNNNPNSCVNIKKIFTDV
The subject of data set [2] is thapsigargin-induced IFN-g secretion from T cells in human whole blood. Put plainly: Human whole blood ex vivo assay, IFN-g secretion. The format is cell-based. Conditions: 50% human whole blood, thapsigargin stimulus, 48 hours; read-out: WB (IFNg) IC50.
For a further data set, the target named is cloned hKv1.5 (Homo sapiens, UniProt P22460). Nature of the data set: FASTPatch PatchXpress counterscreen, hKv1.5. As to conditions: positive control, 2 mM. It is filed as cell-based. A general note: A counterscreen serves to expose hits that act by an unwanted route or on another target.
Sequence of cloned hKv1.5 (P22460 whole entry): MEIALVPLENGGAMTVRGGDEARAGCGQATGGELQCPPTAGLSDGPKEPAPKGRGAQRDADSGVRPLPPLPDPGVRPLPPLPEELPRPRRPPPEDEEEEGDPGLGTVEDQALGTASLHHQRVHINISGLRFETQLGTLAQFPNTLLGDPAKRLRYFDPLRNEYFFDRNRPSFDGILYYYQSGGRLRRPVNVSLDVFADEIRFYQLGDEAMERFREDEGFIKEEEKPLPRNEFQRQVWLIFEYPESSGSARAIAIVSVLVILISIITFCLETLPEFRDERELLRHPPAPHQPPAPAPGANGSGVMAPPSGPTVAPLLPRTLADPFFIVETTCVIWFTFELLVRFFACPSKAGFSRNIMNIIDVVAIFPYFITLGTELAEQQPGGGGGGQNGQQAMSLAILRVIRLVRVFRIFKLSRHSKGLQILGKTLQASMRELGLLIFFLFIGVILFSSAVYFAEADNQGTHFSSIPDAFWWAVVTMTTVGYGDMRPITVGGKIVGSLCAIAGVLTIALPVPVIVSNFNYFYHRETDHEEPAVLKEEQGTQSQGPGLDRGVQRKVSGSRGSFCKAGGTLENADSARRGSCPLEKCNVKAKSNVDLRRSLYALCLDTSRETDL
For data set [3] the following is noted: reported by C. Beeton et al., PNAS 98:13942 (2001); cited from earlier work.
A further data set deals with T1, cloned hKv4.3 (Homo sapiens, UniProt Q9UK17).
T1 sequence (Q9UK17 1-655): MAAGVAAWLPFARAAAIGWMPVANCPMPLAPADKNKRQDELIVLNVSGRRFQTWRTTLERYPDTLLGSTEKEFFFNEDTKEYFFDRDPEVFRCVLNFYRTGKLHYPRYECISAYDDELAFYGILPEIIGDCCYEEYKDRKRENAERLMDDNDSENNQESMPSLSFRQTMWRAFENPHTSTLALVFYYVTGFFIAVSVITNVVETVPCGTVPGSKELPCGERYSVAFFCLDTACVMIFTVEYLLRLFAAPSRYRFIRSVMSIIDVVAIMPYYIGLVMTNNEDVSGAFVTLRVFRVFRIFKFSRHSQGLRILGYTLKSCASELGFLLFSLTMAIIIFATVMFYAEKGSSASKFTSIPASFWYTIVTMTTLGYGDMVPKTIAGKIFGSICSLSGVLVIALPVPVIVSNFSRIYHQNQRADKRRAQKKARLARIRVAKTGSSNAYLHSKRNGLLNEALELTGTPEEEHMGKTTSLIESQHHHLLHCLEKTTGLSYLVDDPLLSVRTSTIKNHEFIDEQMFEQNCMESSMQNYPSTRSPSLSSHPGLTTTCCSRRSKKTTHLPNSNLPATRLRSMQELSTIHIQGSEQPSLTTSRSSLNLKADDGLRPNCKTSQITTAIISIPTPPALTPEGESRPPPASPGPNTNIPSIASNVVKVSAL
Put plainly: FASTPatch PatchXpress counterscreen, hKv4.3. It is filed as cell-based. Conditions: positive control, 0.1 mM.

A further data set deals with T2, DNP(31)-BSA (Bos taurus, UniProt P02769).
T2 construct: purchased Biosearch Technologies, Inc. (Novato, Calif.)
T2 sequence (P02769 25-607): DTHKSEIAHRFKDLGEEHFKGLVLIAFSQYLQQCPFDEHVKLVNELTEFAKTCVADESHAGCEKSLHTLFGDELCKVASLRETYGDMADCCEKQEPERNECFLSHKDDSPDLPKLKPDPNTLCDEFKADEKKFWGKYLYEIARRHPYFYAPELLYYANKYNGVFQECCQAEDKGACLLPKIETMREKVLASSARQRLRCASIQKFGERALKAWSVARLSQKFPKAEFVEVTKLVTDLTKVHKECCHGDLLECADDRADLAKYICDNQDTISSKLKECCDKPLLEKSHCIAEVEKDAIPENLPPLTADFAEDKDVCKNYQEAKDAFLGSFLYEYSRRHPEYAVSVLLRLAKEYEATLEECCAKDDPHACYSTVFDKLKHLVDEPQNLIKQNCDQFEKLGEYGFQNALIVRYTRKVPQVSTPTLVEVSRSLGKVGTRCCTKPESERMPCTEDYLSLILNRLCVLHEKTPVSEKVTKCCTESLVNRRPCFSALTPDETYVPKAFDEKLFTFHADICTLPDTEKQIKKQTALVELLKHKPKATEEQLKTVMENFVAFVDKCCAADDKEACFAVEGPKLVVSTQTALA
Nature of the data set: BIAcore binding assay, DNP(31)-BSA. Conditions: apparent. As to the method:
Materials. Purified anti-DNP antibodies from either hybridoma (3A1, 3C2, 3A4 and 3B1) or recombinant CHO (3A4-F-G2 and 3B1-G2) expression were tested. Anti-human IgG, Fcγ-specific antibody was from Jackson ImmunoResearch Laboratories, Inc. (West Grove, Pa.). DNP-BSA (2,4-dinitrophenol conjugated to bovine serum albumin) was from Biosearch Technologies, Inc. (Novato, Calif.). BIACore 2000, research grade sensor chip CM5, surfactant P-20 (polyoxyethylenesorbitan), HBS-EP (10 mM HEPES, 0.15M NaCl, 3.4 mM EDTA, 0.005% P-20, pH 7.4), amine coupling reagents, 10 mM acetate pH 4.0 and 10 mM glycine, pH 1.5 were from BIACore, Inc. (Piscataway, N.J.). Phosphate-buffered saline (PBS, 1×, no calcium chloride, no magnesium chloride) was from Invitrogen (Carlsbad, Calif.). Bovine serum albumin (BSA, fraction V, IgG free) was from Sigma (St. Louis, Mo.).
Methods. BIAcore® analyses were carried out as follows. Immobilization of anti-human IgG, Fcγ-specific antibody to the CM5 sensor chip surface was performed according to manufacturer's instructions, using a continuous flow of 10 mM HEPES, 0.15M NaCl, 3.4 mM EDTA, 0.005% P-20, pH 7.4 (HBS-EP buffer). Briefly, carboxyl groups on the sensor chip surfaces were activated by injecting 60 μL of a mixture containing 0.2 M 1-ethyl-3-[3-dimethylaminopropyl]carbodiimide hydrochloride (EDC) and 0.05 M N-hydroxysuccinimide (NHS). Specific surfaces were obtained by injecting 180 μL of anti-human IgG, Fcγ-specific antibody diluted in 10 mM acetate buffer (for assay of aKLH antibodies: pH 4.5 at a concentration of 30 μg/mL; for assay of aDNP antibodies: pH 4.0 at a concentration of 60 μg/mL). Excess reactive groups on the surfaces were deactivated by injecting 60 μL of 1 M ethanolamine. Final immobilized levels were about 9,000 (for assay of aKLH antibodies) or about 10,000 (for assay of aDNP antibodies) resonance units (RU). A blank, mock-coupled reference surface was also prepared on the sensor chip. Antibodies and antigen were diluted in sample buffer consisting of PBS+0.005% P-20+0.1 mg/mL BSA. […]
On the technique in general: In SPR one partner is held on a chip, and binding of the other changes the refractive index at the surface.

No end group written: not given here.

As a reminder, the IC50 is the point on the concentration scale where inhibition reaches its midpoint. As for “Bivalent Fc-L10-ShK[1-35] homodimer: IgG1 Fc-L10-ShK(1-35) peptibody homodimer, Example 1 of WO2008/088422A2 (GGGGSGGGGSRSCIDTIPKSRCTAFQCKHSMKYRLSFCRKTCGTC; not fully specified (N-terminus); ends and bridges not checked; also: homodimer via Fc) [reference compound]”, the values for the IC50 in data set [1] and in data set [2] were 0.386 nM and 0.32 nM, respectively. The “greater Kv1.3 activity compared to the bivalent Fc-L10-ShK(2-35) molecule” value with human Kv1.3 (whole cell patch clamp electrophysiology) is “about 8 fold”.

Consider “Bivalent Fc-L10-ShK[2-35] homodimer: IgG1 Fc-L10-ShK(2-35) peptibody homodimer, Example 2 of WO2008/088422A2 (GGGGSGGGGSSCIDTIPKSRCTAFQCKHSMKYRLSFCRKTCGTC; not fully specified (N-terminus); ends and bridges not checked; also: homodimer via Fc) [reference compound]”, for which the IC50 in data set [1] amounted to 0.585 nM; in data set [2], 2.29 nM. Further, the “Potency Relative to ShK (WB, IL2)” value in data set [1] (ratio of WB IL-2 IC50 to that of ShK(1-35)) came to 8.73. Moreover, the “Kv1.1/Kv1.3 Selectivity Ratio (of asterisked IC50 values)” value with human Kv1.3 (IC50 values from whole cell patch clamp) stood at 3.54.

Consider `Nc1ccncc1` [4-aminopyridine], for which the “block of the hKv1.5 current” value on cloned hKv1.5 is “about 80%”.

As usually defined, the half-life is how long it takes for the measured level to halve. On to `CC[C@H](C)[C@@H]1NC(=O)[C@@H](NC(=O)[C@H](CO)NC(=O)[C@@H](N)CCCNC(=N)N)CSSC[C@@H](C(=O)O)NC(=O)[C@H]([C@@H](C)O)NC(=O)CNC(=O)[C@@H]2CSSC[C@@H]3NC(=O)[C@H](CCC(N)=O)NC(=O)[C@H](Cc4ccccc4)NC(=O)[C@H](C)NC(=O)[C@H]([C@@H](C)O)NC(=O)[C@H](CSSC[C@H](NC(=O)[C@H](Cc4ccccc4)NC(=O)[C@H](CO)NC(=O)[C@H](CC(C)C)NC(=O)[C@H](CCCNC(=N)N)NC(=O)[C@H](Cc4ccc(O)cc4)NC(=O)[C@H](CCCCN)NC(=O)[C@H](CCSC)NC(=O)[C@H](CO)NC(=O)[C@H](Cc4cnc[nH]4)NC(=O)[C@H](CCCCN)NC3=O)C(=O)N[C@@H](CCCNC(=N)N)C(=O)N[C@@H](CCCCN)C(=O)N[C@@H]([C@@H](C)O)C(=O)N2)NC(=O)[C@H](CCCNC(=N)N)NC(=O)[C@H](CO)NC(=O)[C@H](CCCCN)NC(=O)[C@@H]2CCCN2C(=O)[C@H]([C@@H](C)CC)NC(=O)[C@H]([C@@H](C)O)NC(=O)[C@H](CC(=O)O)NC1=O` [ShK(1-35), ShK], for which, in data set [3], the half-life is 20 to 30 min.

For “20 kDa-PEG-ShK: SEQ ID NO:363; ShK PEGylated at its N-terminus with 20 kDa PEG [reference compound]”, the IC50 in data set [1] came to 0.38 nM; in data set [2], 0.84 nM.

For `O=C(NCC1CCCCN1)c1cc(OCC(F)(F)F)ccc1OCC(F)(F)F` (stereo not drawn) [flecamide], the “inhibition of the hKv4.3 current” value at cloned hKv4.3 is reported as “about 75%”.

B1: 3B1-G2: recombinant IgG2 form of anti-DNP antibody 3B1 (protein)
light: DIQMTQSPSSLSASEGDRVTITCRASQGIRNDLGWYQQKPGKAPKRLIYAASSLQSGVPLRFSGSGSGTEFTLTISSLQPEDFATYYCLQYNSYPWTFGQGTKVEIKRTVAAPSVFIFPPSDEQLKSGTASVVCLLNNFYPREAKVQWKVDNALQSGNSQESVTEQDSKDSTYSLSSTLTLSKADYEKHKVYACEVTHQGLSSPVTKSFNRGEC
heavy: QVQLQESGPGLVKPSETLSLTCTVSGGSISSYYWSWIRQPPGKGLEWIGYIYYSGNTNSNPSLKSRVTISVDTSKNQFSLKLSSVTAADTAVYYCARTYYDSSGYYYRAFDIWGQGTMVTVSSASTKGPSVFPLAPCSRSTSESTAALGCLVKDYFPEPVTVSWNSGALTSGVHTFPAVLQSSGLYSLSSVVTVPSSNFGTQTYTCNVDHKPSNTKVDKTVERKCCVECPPCPAPPVAGPSVFLFPPKPKDTLMISRTPEVTCVVVDVSHEDPEVQFNWYVDGVEVHNAKTKPREEQFNSTFRVVSVLTVVHQDWLNGKEYKCKVSNKGLPAPIEKTISKTKGQPREPQVYTLPPSREEMTKNQVSLTCLVKGFYPSDIAVEWESNGQPENNYKTTPPMLDSDGSFFLYSKLTVDKSRWQQGNVFSCSVMHEALHNHYTQKSLSLSPGK
B1: the Kd in the data set with DNP(31)-BSA was determined as 0.7 nM. Also, in the data set with DNP(31)-BSA (ne(y) = n × 10^(y)), the “ka, Binding to DNP(31)-BSA” value was determined as 420000 M⁻¹ s⁻¹ and the “kd, Binding to DNP(31)-BSA” value was found to be 0.00031 s⁻¹.

The record behind these values is patent US8734796B2, “Carrier immunoglobulins” (Amgen Inc., priority 2009, dated 2014).
